What all share (conditions): in vivo
Data set [1] is described as follows: Percentage bioavailability vs time profile of Nutraceutical 1 from coated STN (FIG. 6).
Data set [2] is described as follows: Percentage cumulative bioavailability vs time profile of two antibiotics from coated STN (FIG. 4).
A short description of data set [3]: Percentage bioavailability vs time profile of anticancer drug from coated STN (FIG. 5). The text has this:
FIG. 5: Percentage Bioavailability vs time profile of anticancer drug (docetaxel) from coated STN indicating >90% release after 9 hr against conventional oral form with <10% bioavailability

Where two headings read alike, the source gives them in different places.

A word on the bioavailability: it is the share of a dose that reaches the circulation, judged against a reference dose that is usually intravenous. `COC1=C(OC)C(=O)C(C/C=C(\C)CC/C=C(\C)CC/C=C(\C)CC/C=C(\C)CC/C=C(\C)CC/C=C(\C)CC/C=C(\C)CC/C=C(\C)CC/C=C(\C)CCC=C(C)C)=C(C)C1=O` [Coenzyme Q 10]: in data set [1] (oral, from coated STN, at 6 hrs), the bioavailability at 6 hrs was above 80%. In data set [1] (conventional formulations), this molecule showed a bioavailability below 15%.
`CO/N=C(\C(=O)N[C@@H]1C(=O)N2C(C(=O)O)=C(CSc3nc(=O)c(=O)[nH]n3C)CS[C@H]12)c1csc(N)n1` [ceftriaxone] returned a bioavailability at 7 hr in data set [2] (po) above 100%.
Take `CC(=O)O[C@@]12CO[C@@H]1C[C@H](O)[C@@]1(C)C(=O)[C@H](O)C3=C(C)[C@@H](OC(=O)[C@H](O)[C@@H](NC(=O)OC(C)(C)C)c4ccccc4)C[C@@](O)([C@@H](OC(=O)c4ccccc4)[C@H]21)C3(C)C` [docetaxel]: the bioavailability at 9 hr in data set [3] (oral, from coated STN, after 9 hr (printed as release)) is above 90%. Besides, the bioavailability in data set [3] (conventional oral form) is below 10%.
As for `CC1(C)[C@H](C(=O)O)N2C(=O)C[C@H]2S1(=O)=O` [sulbactam], the bioavailability at 7 hr in data set [2] (from coated STN, STN oral delivery, at 7 hr, read-out: Percentage cumulative bioavailability) was above 100%.
